Results: patent US11617741B1, “Method for inhibiting growth of bacteria” (priority 2021, dated 2023)
≈ marks a conversion by molar mass, not a printed value. Marks after values point to notes of the source that are not given here.

Tests used:
[1] = system: ileS and tyrS T-boxes in WT MRSA
Method: Sample preparation of RNA and cDNA. RNA extraction and cDNA preparation were conducted as previously reported. In short, guanidine thiocyanate (0.5 M final concentration)-treated and pelleted bacterial cultures were resuspended in TRIzol, lysed by beat beating with zirconia beads, and centrifuged.
The solution was transferred to fresh tubes, and the RNA was extracted with chloroform. The RNA was then pelleted with 100% isopropanol and washed with ice-cold 70% ethanol, resuspended in Millipore water, DNase treated, and extracted with another isopropanol precipitation and ethanol wash. The resulting RNA was quantified using a NanoDrop 3300 (Thermo Fisher), and the quality was assessed by running 1 μg on a denaturing agarose gel. DNA contamination was tested for by PCR followed by agarose gel electrophoresis. cDNA was generated from 1 μg of high-quality RNA using the SuperScript III reverse transcriptase protocol for random primers (Thermo Fisher).
Either 2-fold or 10-fold dilutions of cDNA were used, and amplification was monitored with Evagreen dye. The expression was normalized to either 23S (B. subtilis 1A5) or 16S (MRSA) and reported as percentage read-through of the T-boxes tested for, calculated using the threshold cycle (2^−ΔΔCT) method.

[2] = system: S. aureus N315 (MRSA isolate); assay: Minimum inhibitory and bactericidal concentration determination; type: cell-based, Staphylococcus aureus
Method: (§1) The 96-well plate was organized as follows. Media (100 μl) were added to all wells.

E. coli = assay: Minimum inhibitory and bactericidal concentration determination, Gram-negative control; type: cell-based, Escherichia coli
Method: as §1

[3] = system: T-box controlled genes in MRSA; assay: RNA sequencing of MRSA grown in minimal media; type: cell-based, Staphylococcus aureus
B. subtilis 168 [4] = assay: Minimum inhibitory concentration determination; type: cell-based, Bacillus subtilis
Method: as §1

S. aureus N315 (MRSA) = assay: Antibiotic resistance frequency (fluctuation assay); type: cell-based, Staphylococcus aureus; conditions: MRSA plated on 64 μg/ml PKZ18-22 or 10 μg/ml gentamicin
Excerpt: Gentamicin on BHI agar was used as a control.

[5] = system: planktonic growth of Staphylococcus
Method: An overnight culture of S. aureus (ATCC 29213) was diluted to 1×10^7 cells/mL in tryptic soy broth (TSB) supplemented with 10% human plasma (Innovative Research, Novi, Mich. USA) and added to the wells of an MBEC™-HTP Assay Biofilm Innoculator (Innovotech, Edmonton, AB, Canada). The plate was incubated overnight at 37° C. and shaken at 125 rpm. […] Control wells were without a COMPOUND OF Formula I. The treatment plate was incubated for 24 h at 37° C. after which the lid was removed, rinsed with PBS, and placed in a new 96-well plate containing TSB. The biofilm was removed from the assay lid into the recovery plate wells by sonication, a new plate cover was added, and the viability of the biofilm was determined after 24 h of incubation at 37° C. by reading the OD at 625 nm. Three independent experiments were conducted. Concentrations of interest were followed up with colony forming unit (CFU) recovery and scanning electron microscopy analysis. After conclusion of the MBEC assay, the minimum bactericidal concentration (MBC) was determined. The MBC is the lowest concentration of an antibacterial agent required to kill a particular bacterium. The peg lid from the MBEC assay was removed from the challenge plate and 20 μL of medium from each well of the challenge plate was removed and added to a new sterile 96-well plate filled with 180 μL TSB. […]

glyQS T-box = assay: qRT-PCR transcriptional read-through of T-box-regulated glyQS (confirmation of inhibition of T-box mechanism); type: cell-based, Bacillus subtilis 1A5; conditions: for T-Box targeting: confirmation of inhibition of T-box mechanism from qRT-PCR assay
Excerpt: Sample preparation of RNA and cDNA.

S. aureus N315 = assay: Checkerboard assay and FIC; type: cell-based, Staphylococcus aureus
Method: S. aureus N315 cultures were prepared identically to MIC determination in BHI media. The co-MICs were determined using the checkerboard method. In short, antibiotics to be tested with PKZ18 analogs were diluted 2-fold top to bottom (A to G rows) in a 96-well plate, PKZ18 analogs were diluted 2-fold right to left (columns 11-2 of the 96-well plate), and column 12 was used for vector, media, and growth controls. Each drug was therefore tested by itself and with every dilution of the other drug.
The synergistic and additive interactions were determined based on determined cutoffs using the equation
[formula] where MICAB is the lowest possible concentration of both drugs combined where there is no growth, and MICA and MICB are the MIC values of the individual drugs. For a synergistic drug interaction, the fractional inhibitory concentration (FIC) should be below 0.5, additive or indifferent effects are considered in an FIC range of 0.5 to <4, and an FIC value above 4 is considered antagonistic.

S. aureus biofilm = assay: MBEC-HTP biofilm model, combinations, Bliss independence model and CFU recovery; type: cell-based, Staphylococcus aureus
Method: This inherent resistance of bacteria in biofilms and the emergence of antibiotic-resistant bacteria has necessitated the drive to explore competent novel antimicrobial agents such as PKZ18 and the development of combinations of these novel antimicrobial agents with established antibiotics. We determined the minimum biofilm eradication concentration (MBEC) of compounds of Formula I in combination with vancomycin, gentamicin, rifampin, and tetracycline. Three independent experiments were conducted and required a checkerboard dilution to test various concentrations of the following combinations (compound of Formula I+each antibiotic) against S. aureus utilizing an established MBEC™-HTP biofilm model (Innovotech).
Briefly, an overnight culture of S. aureus was diluted to 1×10^5 cells/mL in cation-adjusted Mueller Hinton broth (MHB) supplemented with 1% human plasma and added to the wells of an MBEC plate. […] After incubation, the lid was removed and rinsed in PBS. Following treatment, a tetrazolium (2,3,5-triphenyl tetrazolium chloride, TTC) assay was performed to assess metabolic activity and viability. The lid was rinsed in PBS, transferred to a 96-well plate containing a 0.01% TTC solution in MHB, and incubated at 37° C. overnight. To dissolve the stain from the pegs, the lid was placed in a 96-well plate containing 96% ethanol and the OD of the wells was then read at 490 nm. Data was analyzed with the Bliss independence model using the Combenefit software.
After rinsing in PBS, designated pegs were snapped off the lid using sterile tweezers and placed in 1.5 mL Eppendorf tubes containing 200 μL PBS. Biofilm was disrupted from the pegs by sonicating the tubes for 15 min (Branson M8800H, Branson Ultrasonics, West Chester, Pa., USA), followed by vortexing for 10 s. Three independent serial dilutions were prepared for each sample and plated on tryptic soy agar (TSA) plates that were incubated overnight at 37° C. The plates were then imaged and colonies counted on a ColonyDoc-It™ Imaging station (UVP, Analytik Jena, Beverly, Mass., USA).

B. subtilis 168 [6] = system: B. subtilis 168
Method: Gentamicin on BHI agar was used as a control. In short, MRSA and B. subtilis were grown overnight in BHI, and 3-hour day cultures at the optical density of A620 of 0.1 were started for both organisms. The optical density after 3 hours of growth was measured; cultures were then pelleted and resuspended to give 10^11 CFU/ml by optical density. CFU of 10^11 per OD were plated in total; 100 μl of the cells were then plated on BHI agar containing either 128 μg/m1PKZ18 or 64 μg/m1PKZ18-22. Serial dilutions of the cells were plated on plain BHI agar in order to calculate the CFU/ml, which was calculated as the number of colonies found on the plates divided by the total number of bacteria plated. CFU means colony forming units, a measure of live bacteria.

SMILES: CC(C)Cc1ccc(-c2csc(NC(=O)C3C4CCC(C4)C3C(=O)O)n2)cc1 (centres unmarked) [PKZ18-22]
- relative read-through of ileS and tyrS ([1]; MRSA in minimal media, 4 μg/ml): decrease
- read-through of ileS and tyrS ([1]; MRSA in rich media, 8 μg/ml): reduced
- bactericidal effect ([2]; MRSA): bactericidal
- fold reduction in MIC in minimal compared to rich media ([2]; MRSA strain S. aureus N315): 4 fold
- MIC against S. aureus in minimal media ([2]; S. aureus N315, minimal media): 8^b μg/ml
- MIC against S. aureus in rich media ([2]; S. aureus N315, rich media): 32^b μg/ml
- MIC S. aureus N315 ([2]; Table 2): 32 µg/mL (≈ 80.3 µM)
- MBC S. aureus N315 ([2]; Table 2, value in parentheses): 64 µg/mL (≈ 161 µM)
- MIC E. coli (E. coli): > 256 µg/mL
- MBC E. coli (E. coli; value in parentheses): > 256 µg/mL
- cysteine and histidine T-boxes (cysE-cysS and hisS-aspS operons) ([3]; 4 and 8 μg/ml): inhibited only by the higher concentration
- read-through of alaS ([3]; 4 and 8 μg/ml): not inhibited
- read-through reduction of tyrS ([3]; 4 and 8 μg/ml): not statistically significant
- overall change in gene expression ([3]; 4 and 8 μg/ml vs untreated): large overall change in expression
- genes under T-box control (out of the 12) with reduced expression ([3]; 4 or 8 μg/ml PKZ18-22): 8
- read-throughs of glyS, ileS, leuS, pheST, serS, thrS and valS ([3]; both concentrations (4 and 8 μg/ml), normalized to untreated): reduction
- relative read-through of other riboswitch-controlled genes ([3]; non-T-box 5′UTR regulated genes): did not significantly change
- bactericidal effect (B. subtilis 168 [4]; B. subtilis 168): bactericidal
- MIC against B. subtilis 168 in minimal media (B. subtilis 168 [4]; minimal media): 4 µg/mL (≈ 10 µM)
- MIC against B. subtilis 168 in rich media (B. subtilis 168 [4]; rich media): 16 µg/mL (≈ 40.1 µM)
- resistance frequency (S. aureus N315 (MRSA)): 5.6×10^−12
- planktonic growth over a range of concentrations [5]: killing curve
- inhibition of read-through compared with PKZ18 (glyQS T-box; 4 μg/ml of each drug, side by side in same biological replicate): significantly better than PKZ18
- T-box-controlled expression of glyQS (termination of read-through) (glyQS T-box; B. subtilis 1A5, increasing concentrations, minimal media): inhibited
- T-Box targeting (glyQS T-box; Table 1): Yes
- T-Box targeting (glyQS T-box; Table 2): Yes
- FIC of PKZ18-22 and gentamicin (S. aureus N315; both rich and minimal media, WT MRSA): 0.38
- fold decrease in the MIC of PKZ18-22 (S. aureus N315; in combination with gentamicin): 4 fold
- fractional inhibitory concentration FIC (S. aureus N315; with ampicillin): 0.75
- fractional inhibitory concentration FIC (S. aureus N315; with chloramphenicol): 0.75
- fractional inhibitory concentration FIC (S. aureus N315; with gentamicin): 0.38
- fractional inhibitory concentration FIC (S. aureus N315; with kanamycin A): 0.38
- fractional inhibitory concentration FIC (S. aureus N315; with neomycin B): 0.38
- fractional inhibitory concentration FIC (S. aureus N315; with streptomycin): 0.75
- highest synergy score (Bliss) (S. aureus biofilm; PKZ18-22 25 μg/mL and gentamicin 16 μg/mL and 64 μg/mL): 87
- log reduction in CFU/mL in biofilm growth (S. aureus biofilm; PKZ18-22 25 μg/mL and gentamicin 64 μg/mL, 24 h exposure): ~5 log
- biofilm CFU reduction with rifampin combination (S. aureus biofilm; PKZ18-22 25 μg/mL and rifampin 0.001 or 0.005 μg/mL, single dose 24 h): significantly greater reduction when compared to each treatment alone
- maximal synergy score (Bliss) (S. aureus biofilm; PKZ18-22 25 μg/mL and vancomycin 4 μg/mL): 43
- cell reduction (S. aureus biofilm; combination of gentamicin/PKZ18-22, single dose 24 h challenge): > 99.9%
- synergy with minocycline (S. aureus biofilm; single dose 24 h challenge): not synergistic
- resistant colonies (B. subtilis 168 [6]): did not generate resistant colonies
